# Laboratory results from ChEMBL document CHEMBL4118231, “Pyrroloquinoline scaffold-based 5-HT6R ligands: Synthesis, quantum chemical and molecular dynamic studies, and influence of nitrogen atom position in the scaffold on affinity” (Bioorg Med Chem, 2018).
# Target: 5-hydroxytryptamine receptor 6 (Homo sapiens, UniProt P50406)
# Assay: Displacement of [3H]LSD from human 5-HT6R expressed in HEK293 cell membranes after 1 hr by microbeta counting method
# 5-hydroxytryptamine receptor 6, sequence (P50406 whole entry): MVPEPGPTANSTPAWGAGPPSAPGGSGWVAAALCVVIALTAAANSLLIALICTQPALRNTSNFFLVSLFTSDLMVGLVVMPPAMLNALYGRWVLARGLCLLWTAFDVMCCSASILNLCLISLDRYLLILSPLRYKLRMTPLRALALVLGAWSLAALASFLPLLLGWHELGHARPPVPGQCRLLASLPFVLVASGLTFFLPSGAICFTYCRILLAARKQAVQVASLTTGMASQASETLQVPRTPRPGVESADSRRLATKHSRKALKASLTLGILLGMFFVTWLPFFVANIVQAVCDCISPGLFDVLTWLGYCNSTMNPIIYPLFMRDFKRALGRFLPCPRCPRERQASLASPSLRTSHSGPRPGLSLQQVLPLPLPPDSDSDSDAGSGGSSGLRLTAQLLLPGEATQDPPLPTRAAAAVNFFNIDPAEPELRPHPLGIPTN
row,SMILES,Ki
1,O=S(=O)(c1ccccc1)n1cc(C2=CCNCC2)c2ccc3ncccc3c21,711 nM
2,O=S(=O)(c1cccc(Br)c1)n1cc(C2=CCNCC2)c2ccc3cccnc3c21,61 nM
3,O=S(=O)(c1ccccc1)n1cc(C2=CCNCC2)c2ccc3cccnc3c21,131 nM
4,Clc1cccc(Cn2cc(C3=CCNCC3)c3ccc4cccnc4c32)c1,269 nM
5,O=S(=O)(c1cccc(F)c1)n1cc(C2=CCNCC2)c2ccc3ncccc3c21,365 nM
6,O=S(=O)(c1cccc(Br)c1)n1cc(C2=CCNCC2)c2ccc3ncccc3c21,137 nM
7,O=S(=O)(c1cccc(F)c1)n1cc(C2=CCNCC2)c2ccc3cccnc3c21,45 nM
8,O=S(=O)(c1cccc(Cl)c1)n1cc(C2=CCNCC2)c2ccc3ncccc3c21,427 nM
9,O=S(=O)(c1cccc(Cl)c1)n1cc(C2=CCNCC2)c2ccc3cccnc3c21,49 nM
